Values of other authors as cited in patent US20100179144A1, “QUINAZOLINE DERIVATIVES AS P13 KINASE INHIBITORS” (priority 2007, published 2010).
pIC50: −log10 of the molar value.

Test system: Class I PI3-kinases
Settings: about; Fruman et al. 1998; read-out: IC50 against each of these PI3-kinases

In the case of O=c1cc(N2CCOCC2)oc2c(-c3ccccc3)cccc12 [LY294002], the pIC50 is given as 4.70 to 4.82.
